Results from patent publication US20060276412A1, “METHODS AND COMPOSITIONS FOR MANAGING PSYCHOTIC DISORDERS” (priority 2005, published 2006).

What was measured:
[1] = tested on: norepinephrine (NE) in hypothalamus; experiment: Brain microdialysis: norepinephrine in hypothalamus; assay type: in vivo, rats; details: 3 mg/kg olanzapine
Source text: (§1) 62 adult Sprague-Dawley male rats (Harland, Indianapolis) weighing 300-350 g were used in the following studies. The rats were quarantined for at least five days in group housing. Following the quarantine procedure, rats were maintained in individual cages. For surgical implantation with intracerebral guides, guides were inserted directly above either the hypothalamus (HT) (31 rats), or the medial prefrontal cortex (mPFC) (31 rats). Stereotaxic coordinates (Paxinos and Watson, 1986) provided below were used to position the guide cannulae and/or probes: Animals were anesthetiszed according using standard procedures. The head of each animal was shaved from the front of the eyes to the back of the skull. Shaved areas were disinfected, and the animals were placed in stereotaxic frame ear bars. The animal was aligned with the incisor bar. The animal's scalp was cut with a sharp #15 scalpel blade. If the bone began to bleed, bone wax was applied to the incision. Periosteal tissue was cleaned from the skull to the lateral ridges with a cotton swab, and clamps were used to pull the skin out of the way. The probe or guide was placed in the clamp, such that the angled outlet cannula of the microdialysis probe was angled towards the animal's tail. The target coordinates were calculated, and this point was marked on the skull. Two holes in opposing skull bones were drilled for bone anchor screws and thread screws. The dura was torn away with a sharp, pointed object. The guide cannulae were placed at the dorsal/ventral zero point. […] Using dental acrylic, the cannulae were cemented to the bone anchor screws. The cement was allowed to harden and the rodent was removed from the stereotaxic frame. The cranial and caudal aspects of the incision were sutured. The animals were allowed to recover for three to five days. Stylets in the guides were replaced with dialysis probes on the evening prior to study to allow for animal acclimation and to reestablish the integrity of the blood brain barrier. […] Rats were weighed pre-surgery, every 1-2 days post-surgery until time of microdialysis, and postmortem. Microdialysis probes used in the experiments described below were first soaked in standard Ringer's perfusion medium for 30 minutes. Inlet and outlet tubing was connected to each probe using flanged connectors. The outlet tubing was connected to a fraction collector, and the inlet was connected to and […] syringe drive. The probes were immersed in fresh Ringer's solution and flushed with Ringer's perfusion medium at a rate of 2 μl/min for 1 hour. The probe was then transferred to the intracerebral guide on the rat's skull. […] Water was added to obtain a final concentration of 0.3 mg/ml. […] Zonisamide was dissolved in DMSO. […] The final concentration of zonisamide was 7.5 mg/ml. The drug solution was maintained at 37° C. prior to injection. The rats were divided into ten test groups. Five animals were analyzed for each test group. The test groups were as follows: For the microdialysis experiments, perfusion consisted of 2 μl/min delivery of sterile standard Ringer's solution for intervals of 20 minutes. Final collection volumes were 40 μl. 30 μl samples were analyzed for each analyte: DA, NE, 5HT. 12 pre-dose samples and 12 post dose samples were collected every 20 minutes for a duration of 4 hours, both pre-dose and post-dose. Six samples from the pre-dose and post-dose collections were analyzed for norepinephrine. The remaining six samples from the pre-dose and post-dose collections were analyzed for both dopamine and serotonin. Samples were chilled to -80° C. immediately following collection. The samples were analyzed using liquid chromatography with electrochemical detection using conventional techniques. See, e.g., Huang, T., R. et al. (1994) New […] Microbore Columns for Liquid Chromatography. Current Separations 12(4): 191-195. […] Concentrations of each compound are expressed as % baseline.

[2] = tested on: serotonin (5HT) in hypothalamus; experiment: Brain microdialysis: serotonin in hypothalamus; assay type: in vivo, rats; details: 3 mg/kg olanzapine
Source text: as §1

[3] = cited from earlier work
histaminic receptors = details: cited from earlier work
[4] = tested on: serotonin (5HT) in medial prefrontal cortex; experiment: Brain microdialysis: serotonin in mPFC; assay type: in vivo, rats; details: 3 mg/kg olanzapine
Source text: as §1

dopamine receptors = details: cited from earlier work
serotonin receptors = details: cited from earlier work
[5] = tested on: dopamine (DA) in medial prefrontal cortex; experiment: Brain microdialysis: dopamine in mPFC; assay type: in vivo, rats; details: 3 mg/kg olanzapine
Source text: as §1

[6] = tested on: norepinephrine (NE) in medial prefrontal cortex; experiment: Brain microdialysis: norepinephrine in mPFC; assay type: in vivo, rats; details: 3 mg/kg olanzapine
Source text: as §1

[7] = tested on: alpha-adrenergic receptors; details: cited from earlier work
[8] = tested on: dopamine (DA) in hypothalamus; experiment: Brain microdialysis: dopamine in hypothalamus; assay type: in vivo, rats; details: 3 mg/kg olanzapine
Source text: as §1

## Cc1cc2c(s1)Nc1ccccc1N=C2N1CCN(C)CC1 [olanzapine]
[1]; 3 HOUR AVE
  Norepinephrine concentrations in hypothalamus: 129.18 % baseline
[1]; 20 min post dose
  Norepinephrine concentrations in hypothalamus: 161.934 % baseline
[1]; 60 min post dose
  Norepinephrine concentrations in hypothalamus: 148.422 % baseline
[1]; 100 min post dose
  Norepinephrine concentrations in hypothalamus: 115.418 % baseline
[1]; 140 min post dose
  Norepinephrine concentrations in hypothalamus: 118.651 % baseline
[1]; 180 min post dose
  Norepinephrine concentrations in hypothalamus: 113.533 % baseline
[1]; 220 min post dose
  Norepinephrine concentrations in hypothalamus: 115.014 % baseline
[1]; -40 min pre dose
  Norepinephrine concentrations in hypothalamus: 105.631 % baseline
[1]; -80 min pre dose
  Norepinephrine concentrations in hypothalamus: 103.272 % baseline
[1]; -120 min pre dose
  Norepinephrine concentrations in hypothalamus: 91.097 % baseline
[2]; 3 HOUR AVE
  Serotonin concentrations in hypothalamus: 89.0647 % baseline
[2]; 40 min post dose
  Serotonin concentrations in hypothalamus: 89.816 % baseline
[2]; 80 min post dose
  Serotonin concentrations in hypothalamus: 86.183 % baseline
[2]; 120 min post dose
  Serotonin concentrations in hypothalamus: 92.131 % baseline
[2]; 160 min post dose
  Serotonin concentrations in hypothalamus: 80.560 % baseline
[2]; 200 min post dose
  Serotonin concentrations in hypothalamus: 98.707 % baseline
[2]; 240 min post dose
  Serotonin concentrations in hypothalamus: 88.921 % baseline
[2]; -20 min pre dose
  Serotonin concentrations in hypothalamus: 107.440 % baseline
[2]; -60 min pre dose
  Serotonin concentrations in hypothalamus: 98.601 % baseline
[2]; -100 min pre dose
  Serotonin concentrations in hypothalamus: 93.959 % baseline
[3]; analysis of four studies of various durations
  patients with a weight gain of ≧7%: 40%
[3]; noticeable in the first month of treatment
  time at which induced weight gain peaks: about 9 months
Histaminic receptors
  affinity for histaminic receptors: lower affinity
[4]; 3 HOUR AVE
  Serotonin concentrations in mPFC: 88.1078 % baseline
[4]; 40 min post dose
  Serotonin concentrations in mPFC: 115.609 % baseline
[4]; 80 min post dose
  Serotonin concentrations in mPFC: 101.724 % baseline
[4]; 120 min post dose
  Serotonin concentrations in mPFC: 88.189 % baseline
[4]; 160 min post dose
  Serotonin concentrations in mPFC: 92.085 % baseline
[4]; 200 min post dose
  Serotonin concentrations in mPFC: 119.171 % baseline
[4]; 240 min post dose
  Serotonin concentrations in mPFC: 83.828 % baseline
[4]; -20 min pre dose
  Serotonin concentrations in mPFC: 98.453 % baseline
[4]; -60 min pre dose
  Serotonin concentrations in mPFC: 100.982 % baseline
[4]; -100 min pre dose
  Serotonin concentrations in mPFC: 100.565 % baseline
Dopamine receptors
  affinity for dopamine receptors: high affinity
Serotonin receptors
  affinity for serotonin receptors: high affinity
[5]; 3 HOUR AVE
  Dopamine concentrations in mPFC: 209.94 % baseline
[5]; 40 min post dose
  Dopamine concentrations in mPFC: 227.023 % baseline
[5]; 80 min post dose
  Dopamine concentrations in mPFC: 266.655 % baseline
[5]; 120 min post dose
  Dopamine concentrations in mPFC: 219.135 % baseline
[5]; 160 min post dose
  Dopamine concentrations in mPFC: 186.256 % baseline
[5]; 200 min post dose
  Dopamine concentrations in mPFC: 202.788 % baseline
[5]; 240 min post dose
  Dopamine concentrations in mPFC: 153.048 % baseline
[5]; -20 min pre dose
  Dopamine concentrations in mPFC: 105.509 % baseline
[5]; -60 min pre dose
  Dopamine concentrations in mPFC: 119.009 % baseline
[5]; -100 min pre dose
  Dopamine concentrations in mPFC: 75.482 % baseline
[6]; 3 HOUR AVE
  Norepinephrine concentrations in mPFC: 154.642 % baseline
[6]; 20 min post dose
  Norepinephrine concentrations in mPFC: 162.923 % baseline
[6]; 60 min post dose
  Norepinephrine concentrations in mPFC: 197.693 % baseline
[6]; 100 min post dose
  Norepinephrine concentrations in mPFC: 159.929 % baseline
[6]; 140 min post dose
  Norepinephrine concentrations in mPFC: 141.759 % baseline
[6]; 180 min post dose
  Norepinephrine concentrations in mPFC: 147.978 % baseline
[6]; 220 min post dose
  Norepinephrine concentrations in mPFC: 117.569 % baseline
[6]; -40 min pre dose
  Norepinephrine concentrations in mPFC: 98.000 % baseline
[6]; -80 min pre dose
  Norepinephrine concentrations in mPFC: 119.880 % baseline
[6]; -120 min pre dose
  Norepinephrine concentrations in mPFC: 82.120 % baseline
[7]
  affinity for alpha-adrenergic receptors: lower affinity
[8]; 3 HOUR AVE
  Dopamine concentrations in hypothalamus: 125.98 % baseline
[8]; 40 min post dose
  Dopamine concentrations in hypothalamus: 156.507 % baseline
[8]; 80 min post dose
  Dopamine concentrations in hypothalamus: 110.363 % baseline
[8]; 120 min post dose
  Dopamine concentrations in hypothalamus: 183.338 % baseline
[8]; 160 min post dose
  Dopamine concentrations in hypothalamus: 89.032 % baseline
[8]; 200 min post dose
  Dopamine concentrations in hypothalamus: 113.293 % baseline
[8]; 240 min post dose
  Dopamine concentrations in hypothalamus: 95.959 % baseline
[8]; -20 min pre dose
  Dopamine concentrations in hypothalamus: 99.830 % baseline
[8]; -60 min pre dose
  Dopamine concentrations in hypothalamus: 93.473 % baseline
[8]; -100 min pre dose
  Dopamine concentrations in hypothalamus: 106.697 % baseline

## O=C1Cc2cc(CCN3CCN(c4nsc5ccccc45)CC3)c(Cl)cc2N1 [ziprasidone]
Histaminic receptors
  affinity for histaminic receptors: medium affinity
Dopamine receptors
  affinity for dopamine receptors: high affinity
Serotonin receptors
  affinity for serotonin receptors: high affinity
[7]
  affinity for alpha-adrenergic receptors: high affinity
